In patent publication US8476302B2, “α-ketoamide derivatives useful endothelial lipase inhibitors” (Janssen Pharmaceutica N.V., priority 2010, dated 2013):

Assays:
Mouse EL = biological target: T1, Mouse EL (Mus musculus, UniProt Q9WVG5); experiment: Endothelial Lipase Assay, cell surface lipase activity (mouse); assay type: cell-based; settings: PLA1 substrate 10 μM, fluorescence reaction rate, several values in a cell are repeat determinations
T1 construct: host or cells: not described for mouse EL
T1 sequence (Q9WVG5 21-500): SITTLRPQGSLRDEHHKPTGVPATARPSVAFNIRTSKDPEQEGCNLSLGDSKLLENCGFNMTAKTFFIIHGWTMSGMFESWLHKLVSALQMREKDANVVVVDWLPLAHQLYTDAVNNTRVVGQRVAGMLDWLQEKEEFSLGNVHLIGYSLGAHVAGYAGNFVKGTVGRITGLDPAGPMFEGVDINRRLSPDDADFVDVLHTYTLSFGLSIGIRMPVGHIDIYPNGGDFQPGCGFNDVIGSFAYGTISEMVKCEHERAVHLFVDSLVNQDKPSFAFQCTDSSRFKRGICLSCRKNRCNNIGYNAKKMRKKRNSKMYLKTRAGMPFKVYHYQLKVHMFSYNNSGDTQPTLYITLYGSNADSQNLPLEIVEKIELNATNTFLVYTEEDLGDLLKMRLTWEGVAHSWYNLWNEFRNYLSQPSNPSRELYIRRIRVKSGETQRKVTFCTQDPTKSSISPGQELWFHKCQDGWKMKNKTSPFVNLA
Outline: (§1)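 Cells expressing human or mouse EL, plated 2000 cells/well in serum-free medium for 18-24 h at 37° C, then given PLA1 substrate (10 μM final) in HBSS/25 mM HEPES pH 7.2. Fluorescence (ex 490/em 515 nm) read kinetically for 30 min at 37° C; IC50 from slopes of linear regression over 480-1500 s.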

[1] = biological target: T2, human endothelial lipase (EL) (Homo sapiens, UniProt Q9Y5X9); experiment: Endothelial Lipase Assay, cell surface lipase activity (human); assay type: cell-based; settings: cells expressing human EL, PLA1 substrate 10 μM, fluorescence reaction rate; several values in a cell are repeat determinations
T2 construct: host or cells: cells expressing human endothelial lipase
T2 sequence (Q9Y5X9 21-500): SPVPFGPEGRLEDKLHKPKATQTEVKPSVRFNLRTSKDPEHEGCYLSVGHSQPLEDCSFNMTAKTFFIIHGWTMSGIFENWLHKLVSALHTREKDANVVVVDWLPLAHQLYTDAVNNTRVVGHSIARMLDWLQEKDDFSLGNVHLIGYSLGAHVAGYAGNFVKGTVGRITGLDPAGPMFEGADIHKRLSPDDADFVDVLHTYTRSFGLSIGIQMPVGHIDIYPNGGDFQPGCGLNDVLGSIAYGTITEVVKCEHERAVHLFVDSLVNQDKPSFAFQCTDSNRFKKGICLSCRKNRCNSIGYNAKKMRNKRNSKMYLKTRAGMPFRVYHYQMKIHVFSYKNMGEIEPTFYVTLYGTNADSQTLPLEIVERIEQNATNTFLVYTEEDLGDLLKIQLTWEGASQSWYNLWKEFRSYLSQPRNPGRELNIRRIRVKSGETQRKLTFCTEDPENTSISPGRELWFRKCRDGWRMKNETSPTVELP
Outline: as §1

- IC50 (Mouse EL): 135 nM
- IC50 [1]: 247 nM
Structure (SMILES): O=C(CCCCCCc1ccccc1)C(=O)NCc1nnc(-c2ccc(Oc3ccccc3)cc2)o1 [Compound 179]
